Laboratory results: publication PMC10786919, “Design-rules for stapled peptides with in vivo activity and their application to Mdm2/X antagonists” (Nature Communications, 2024)
Positions of bridges follow the written chain, without caps; N, C: chain ends. Non-standard residues stand in square brackets, D forms with d. Residues, ends and D or L forms follow the SMILES beside them. R8 = C=CCCCCCC[C@@](C)(N)C(=O)O; Cha = N[C@@H](CC1CCCCC1)C(=O)O; R5 = C=CCCC[C@@](C)(N)C(=O)O; S5 = C=CCCC[C@](C)(N)C(=O)O; Ahx = NCCCCCC(=O)O

Test system: p53 responsive β-lactamase reporter in HCT116 cells
Experiment: cells
Assay type: cell-based
Conditions: 0% FBS 4Hr; read-out: p53 reporter assay EC50
Description: HCT116 cells were stably transfected with a p53 responsive β-lactamase reporter and expanded in McCoy’s 5 A Medium with 10% fetal bovine serum (FBS), Blasticidin, and Penicillin/Streptomycin and then transferred to 1.5 ml freezing vials and stored under liquid nitrogen in growth media containing 5% DMSO. […] The cells were then seeded into a 384-well plate at a density of 8000 cells per well. […] The final working concentration of DMSO was 0.5%. β-lactamase activity was detected using the ToxBLAzer Dual Screen (Invitrogen), as per the manufacturer’s instructions. Measurements were made using the Envision multiplate reader (Perkin–Elmer). […] Measurements were taken a minimum of three times (biological replicates) and values are reported as geometric means of the replicates.

SMILES | EC50 [µM]
CC(=O)N[C@@H](CCCCN)C(=O)NCCCCCC(=O)N[C@H](C(=O)N[C@@H](CO)C(=O)N[C@@H](Cc1ccccc1)C(=O)N[C@]1(C)CCCCCCCCCCC[C@@](C)(C(=O)N[C@@H](CCC(=O)O)C(=O)N[C@@H](CC(N)=O)C(=O)N[C@@H](Cc2ccccc2)C(N)=O)NC(=O)[C@H](CC(C)C)NC(=O)[C@H](CC(C)C)NC(=O)[C@H](C)NC(=O)[C@H](Cc2c[nH]c3ccccc23)NC(=O)[C@H](Cc2ccc(O)cc2)NC(=O)[C@H](CCC(=O)O)NC1=O)[C@@H](C)O [MP-049] | 8.74
CC(=O)N[C@@H](CCCCN)C(=O)N[C@@H](CCCCN)C(=O)N[C@@H](CO)C(=O)NCC(=O)N[C@@H](CO)C(=O)NCC(=O)N[C@H](C(=O)N[C@@H](CO)C(=O)N[C@@H](Cc1ccccc1)C(=O)N[C@]1(C)CCCCCCC=CCCC[C@@](C)(C(=O)N[C@@H](CCC(=O)O)C(=O)N[C@@H](CC(N)=O)C(=O)N[C@@H](Cc2ccccc2)C(N)=O)NC(=O)[C@H](CC(C)C)NC(=O)[C@H](CC(C)C)NC(=O)[C@H](C)NC(=O)[C@H](Cc2c[nH]c3ccccc23)NC(=O)[C@H](Cc2ccc(O)cc2)NC(=O)[C@H](CCC(=O)O)NC1=O)[C@@H](C)O [MP-052] (Ac-KKSGSGTSF[R8]EYWALL[S5]ENF-NH2; staple 10-17) | 12.9
CC(=O)N[C@H](C(=O)N[C@@H](CO)C(=O)N[C@@H](Cc1ccccc1)C(=O)N[C@]1(C)CCCCCCC=CCCC[C@@](C)(C(N)=O)NC(=O)[C@H](CC2CCCCC2)NC(=O)[C@H](CC(C)C)NC(=O)[C@H](C)NC(=O)[C@H](Cc2c[nH]c3ccccc23)NC(=O)[C@H](Cc2ccc(O)cc2)NC(=O)[C@H](CCC(=O)O)NC1=O)[C@@H](C)O [MP-064] (Ac-TSF[R8]EYWAL[Cha][S5]-NH2; staple 4-11) | 0.89
CC(=O)N[C@H](C(=O)N[C@@H](CO)C(=O)N[C@@H](C)C(=O)N[C@]1(C)CCCCCCC=CCCC[C@@](C)(C(N)=O)NC(=O)[C@H](CC(C)C)NC(=O)[C@H](CC(C)C)NC(=O)[C@H](C)NC(=O)[C@H](Cc2c[nH]c3ccccc23)NC(=O)[C@H](Cc2ccc(O)cc2)NC(=O)[C@H](CCC(=O)O)NC1=O)[C@@H](C)O [MP-067] (Ac-TSA[R8]EYWALL[S5]-NH2; staple 4-11) | > 50
CC(=O)N[C@@H](CCCCN)C(=O)NCCCCCC(=O)N[C@H](C(=O)N[C@@H](CO)C(=O)N[C@@H](C)C(=O)N[C@]1(C)CCCCCCC=CCCC[C@@](C)(C(=O)N[C@@H](CCC(=O)O)C(=O)N[C@@H](CC(N)=O)C(=O)N[C@@H](Cc2ccccc2)C(N)=O)NC(=O)[C@H](CC(C)C)NC(=O)[C@H](CC(C)C)NC(=O)[C@H](C)NC(=O)[C@H](Cc2c[nH]c3ccccc23)NC(=O)[C@H](Cc2ccc(O)cc2)NC(=O)[C@H](CCC(=O)O)NC1=O)[C@@H](C)O [MP-068] (Ac-K[Ahx]TSA[R8]EYWALL[S5]ENF-NH2; staple 6-13) | > 50
CC(=O)N[C@@H](CCCCN)C(=O)N[C@@H](CCCCN)C(=O)NCCCCCC(=O)N[C@H](C(=O)N[C@@H](CO)C(=O)N[C@@H](C)C(=O)N[C@]1(C)CCCCCCC=CCCC[C@@](C)(C(=O)N[C@@H](CCC(=O)O)C(=O)N[C@@H](CC(N)=O)C(=O)N[C@@H](Cc2ccccc2)C(N)=O)NC(=O)[C@H](CC(C)C)NC(=O)[C@H](CC(C)C)NC(=O)[C@H](C)NC(=O)[C@H](Cc2c[nH]c3ccccc23)NC(=O)[C@H](Cc2ccc(O)cc2)NC(=O)[C@H](CCC(=O)O)NC1=O)[C@@H](C)O [MP-069] (Ac-KK[Ahx]TSA[R8]EYWALL[S5]ENF-NH2; staple 7-14) | > 50
CC(=O)N[C@@H](CCCCN)C(=O)N[C@@H](CCCCN)C(=O)N[C@@H](CCCCN)C(=O)NCCCCCC(=O)N[C@H](C(=O)N[C@@H](CO)C(=O)N[C@@H](C)C(=O)N[C@]1(C)CCCCCCC=CCCC[C@@](C)(C(=O)N[C@@H](CCC(=O)O)C(=O)N[C@@H](CC(N)=O)C(=O)N[C@@H](Cc2ccccc2)C(N)=O)NC(=O)[C@H](CC(C)C)NC(=O)[C@H](CC(C)C)NC(=O)[C@H](C)NC(=O)[C@H](Cc2c[nH]c3ccccc23)NC(=O)[C@H](Cc2ccc(O)cc2)NC(=O)[C@H](CCC(=O)O)NC1=O)[C@@H](C)O [MP-070] (Ac-KKK[Ahx]TSA[R8]EYWALL[S5]ENF-NH2; staple 8-15) | > 50

Same assay, conditions: 0% FBS 4Hr; read-out: p53 reporter assay: EC50

SMILES | EC50 [µM]
CC(=O)N[C@@H](CCCCN)C(=O)N[C@@H](CCCCN)C(=O)N[C@@H](CCCCN)C(=O)NCCCCCC(=O)N[C@H](C(=O)N[C@@H](CO)C(=O)N[C@@H](CC(C)C)C(=O)N[C@]1(C)CCCCCCC=CCCC[C@@](C)(C(=O)N[C@@H](CCC(=O)O)C(=O)N[C@@H](CC(N)=O)C(=O)N[C@@H](Cc2ccccc2)C(N)=O)NC(=O)[C@H](Cc2c[nH]c3ccccc23)NC(=O)[C@H](CC(C)C)NC(=O)[C@H](C)NC(=O)[C@H](Cc2ccccc2)NC(=O)[C@H](Cc2ccc(O)cc2)NC(=O)[C@H](CCC(=O)O)NC1=O)[C@@H](C)O [MP-075] (Ac-KKK[Ahx]TSL[R8]EYFALW[S5]ENF-NH2; staple 8-15) | > 50
CC(=O)N[C@H](C(=O)N[C@@H](CO)C(=O)N[C@@H](Cc1ccccc1)C(=O)N[C@]1(C)CCCC=CCCC[C@](C)(C(=O)N[C@@H](CC(C)C)C(=O)N[C@@H](CC(C)C)C(=O)N2CCC[C@H]2C(=O)N[C@@H](CCC(=O)O)C(=O)N[C@@H](CC(N)=O)C(=O)N[C@@H](Cc2ccccc2)C(N)=O)NC(=O)[C@H](Cc2c[nH]c3ccccc23)NC(=O)[C@H](Cc2ccc(O)cc2)NC(=O)[C@H](CCC(=O)O)NC1=O)[C@@H](C)O [MP-078] (Ac-TSF[R5]EYW[R5]LLPENF-NH2; staple 4-8) | 37.7
CC(=O)N[C@H](C(=O)N[C@@H](CO)C(=O)N[C@@H](Cc1ccccc1)C(=O)N[C@]1(C)CCCCCCC=CCCC[C@@](C)(C(=O)N[C@@H](CCC(=O)O)C(=O)N[C@@H](CC(N)=O)C(N)=O)NC(=O)[C@H](CC(C)C)NC(=O)[C@H](CC(C)C)NC(=O)[C@H](C)NC(=O)[C@H](Cc2c[nH]c3ccccc23)NC(=O)[C@H](Cc2ccc(O)cc2)NC(=O)[C@H](CCC(=O)O)NC1=O)[C@@H](C)O [MP-086] | 17.4
CC(=O)N[C@H](C(=O)N[C@@H](CO)C(=O)N[C@@H](Cc1ccccc1)C(=O)N[C@]1(C)CCCCCCC=CCCC[C@@](C)(C(=O)N[C@@H](CCC(=O)O)C(=O)N[C@@H](CC(N)=O)C(=O)N[C@@H](C)C(N)=O)NC(=O)[C@H](CC(C)C)NC(=O)[C@H](CC(C)C)NC(=O)[C@H](C)NC(=O)[C@H](Cc2c[nH]c3ccccc23)NC(=O)[C@H](Cc2ccc(O)cc2)NC(=O)[C@H](CCC(=O)O)NC1=O)[C@@H](C)O [MP-088] | 22.3
CC(=O)N[C@H](C(=O)N[C@@H](CO)C(=O)N[C@@H](Cc1ccccc1)C(=O)N[C@]1(C)CCCCCCCCCCC[C@@](C)(C(N)=O)NC(=O)[C@H](CC(C)C)NC(=O)[C@H](CC(C)C)NC(=O)[C@H](C)NC(=O)[C@H](Cc2c[nH]c3ccccc23)NC(=O)[C@H](Cc2ccc(O)cc2)NC(=O)[C@H](CCC(=O)O)NC1=O)[C@@H](C)O [MP-089] | 1.23
CC(=O)N[C@H](C(=O)N[C@@H](CO)C(=O)N[C@@H](Cc1ccccc1)C(=O)N[C@]1(C)CCCCCCC=CCCC[C@@](C)(C(=O)N[C@@H](CCC(=O)O)C(=O)N[C@@H](CC(N)=O)C(=O)N[C@H](Cc2ccccc2)C(N)=O)NC(=O)[C@H](CC(C)C)NC(=O)[C@H](CC(C)C)NC(=O)[C@H](C)NC(=O)[C@H](Cc2c[nH]c3ccccc23)NC(=O)[C@H](Cc2ccc(O)cc2)NC(=O)[C@H](CCC(=O)O)NC1=O)[C@@H](C)O [MP-091] | 5.28
CC(=O)N[C@H](C(=O)N[C@@H](CO)C(=O)N[C@@H](Cc1ccccc1)C(=O)N[C@]1(C)CCCCCCC=CCCC[C@@](C)(C(=O)N[C@H](CCC(=O)O)C(=O)N[C@@H](CC(N)=O)C(=O)N[C@@H](Cc2ccccc2)C(N)=O)NC(=O)[C@H](CC(C)C)NC(=O)[C@H](CC(C)C)NC(=O)[C@H](C)NC(=O)[C@H](Cc2c[nH]c3ccccc23)NC(=O)[C@H](Cc2ccc(O)cc2)NC(=O)[C@H](CCC(=O)O)NC1=O)[C@@H](C)O [MP-092] | 6.33
CC(=O)N[C@@H](CCCCN)C(=O)N[C@@H](CCCCN)C(=O)NCCCCCC(=O)N[C@H](C(=O)N[C@@H](CO)C(=O)N[C@@H](Cc1ccccc1)C(=O)N[C@]1(C)CCCCCC/C=C\CCC[C@@](C)(C(=O)N[C@@H](CCC(=O)O)C(=O)N[C@@H](CC(N)=O)C(=O)N[C@@H](Cc2ccccc2)C(N)=O)NC(=O)[C@H](CC(C)C)NC(=O)[C@H](CC(C)C)NC(=O)[C@H](C)NC(=O)[C@H](Cc2c[nH]c3ccccc23)NC(=O)[C@H](Cc2ccc(O)cc2)NC(=O)[C@H](CCC(=O)O)NC1=O)[C@@H](C)O [MP-095] (Ac-KK[Ahx]TSF[R8]EYWALL[S5]ENF-NH2; staple (Z) 7-14) | 5.83
CC(=O)N[C@H](C(=O)N[C@@H](CO)C(=O)N[C@@H](Cc1ccccc1)C(=O)N[C@]1(C)CCCC=CCCC[C@](C)(C(=O)N[C@@H](CC(C)C)C(=O)N[C@@H](CC(C)C)C(=O)N2CCC[C@H]2C(=O)N[C@@H](CCC(=O)O)C(=O)N[C@@H](CC(N)=O)C(=O)N[C@@H](Cc2ccc(O)cc2)C(N)=O)NC(=O)[C@H](Cc2c[nH]c3ccccc23)NC(=O)[C@H](Cc2ccc(O)cc2)NC(=O)[C@H](CCC(=O)O)NC1=O)[C@@H](C)O [MP-2082] (Ac-TSF[R5]EYW[R5]LLPENY-NH2; staple 4-8) | 43
CC(=O)N[C@H](C(=O)N[C@@H](CO)C(=O)N[C@@H](Cc1ccccc1)C(=O)N[C@]1(C)CCCC=CCCC[C@](C)(C(=O)N[C@@H](CC(C)C)C(=O)N[C@@H](CC(C)C)C(=O)N[C@@H](CO)C(=O)N[C@@H](CCC(=O)O)C(=O)N[C@@H](CC(N)=O)C(N)=O)NC(=O)[C@H](Cc2c[nH]c3ccccc23)NC(=O)[C@H](Cc2ccc(O)cc2)NC(=O)[C@H](CCC(=O)O)NC1=O)[C@@H](C)O [MP-2087] (Ac-TSF[R5]EYW[R5]LLSEN-NH2; staple 4-8) | 24.7
CC(=O)N[C@H](C(=O)N[C@@H](CO)C(=O)N[C@@H](Cc1ccccc1)C(=O)N[C@]1(C)CCCCCC/C=C\CCC[C@@](C)(C(N)=O)NC(=O)[C@H](CC(C)C)NC(=O)[C@H](CC(C)C)NC(=O)[C@H](C)NC(=O)[C@H](Cc2c[nH]c3ccccc23)NC(=O)[C@H](Cc2ccc(O)cc2)NC(=O)[C@H](CCC(=O)O)NC1=O)[C@@H](C)O [MP-2090] | 5.78
